Test results reported in patent publication US20050250837A1, “Use of C-Raf inhibitors for the treatment of neurodegenerative diseases” (priority 2002, published 2005).

Tests used:
MEK1 = MEK1 (Homo sapiens, UniProt Q02750); test: In vitro kinase assay, purified kinase (Upstate Kinase Profiling); assay type: biochemical; also: ATP 10 µM
From the text: (§1) (Lackey et al., 2000). […] A number of reports have implicated JNKs in the promotion of neuronal apoptosis both in vivo and in cell culture systems (Coffey et al., 2002). Although all three JNK proteins are expressed in neurons, the phosphorylation of c-jun is believed to be mediated by JNK2 or JNK3 (Bruckner et al., 2001; Bruckner and Estus, 2002; Coffey et al., 2002). […] In apoptotic neurons, JNK activation is mediated primarily by MKK7 (Eilers et al., 1998; Trotter et al., 2002).
(§2) In general, in vitro kinase assays were performed using purified kinase and synthetic substrates under standard conditions using the Kinase Profiling service of Upstate Biotechnology. Briefly, for each assay 5-10 mU of purified kinase was used. […] Kinase activity was quantified by measuring ^33P incorporation by spotting an aliquot on P30 filters, washing in 50 mM phosphoric acid and scintillation counting. The buffer composition for C-Raf, JNK1, JNK2, JNK3, MEK1, MKK6, MKK7 was 50 mM Tris pH7.5, 0.1 mM EGTA, 10 mM Mg acetate and [γ-^33P-ATP]. The peptide substrates used were as follows: For C-Raf, 0.66 mg/ml MBP; for cdks, 0.1 mg/ml histone H1; for JNKs, 3 uM ATF2; for MEK1, 1 uM MAPK2; for MKK6, 1 uM of SAPK2a and for MKK7, 2 uM JNK1α.

JNK2 = JNK2 (Homo sapiens, UniProt P45984); test: as above; assay type: biochemical; also: ATP 10 µM
JNK2, sequence (P45984 whole entry, species assumed): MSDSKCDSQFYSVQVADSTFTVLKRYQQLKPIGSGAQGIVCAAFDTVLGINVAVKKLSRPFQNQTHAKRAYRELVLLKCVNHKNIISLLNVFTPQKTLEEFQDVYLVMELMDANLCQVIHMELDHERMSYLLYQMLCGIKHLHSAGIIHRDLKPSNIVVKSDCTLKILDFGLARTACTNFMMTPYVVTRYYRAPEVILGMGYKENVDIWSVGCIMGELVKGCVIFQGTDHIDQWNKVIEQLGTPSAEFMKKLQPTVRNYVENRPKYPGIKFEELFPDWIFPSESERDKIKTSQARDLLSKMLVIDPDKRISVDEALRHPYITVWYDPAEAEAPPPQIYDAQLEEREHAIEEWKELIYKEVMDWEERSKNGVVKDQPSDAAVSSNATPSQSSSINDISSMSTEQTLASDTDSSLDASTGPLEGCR
From the text: as §1, §2

JNK1 = JNK1 (Homo sapiens, UniProt P45983); test: as above; assay type: biochemical; also: ATP 10 µM
JNK1, sequence (P45983 whole entry, species assumed): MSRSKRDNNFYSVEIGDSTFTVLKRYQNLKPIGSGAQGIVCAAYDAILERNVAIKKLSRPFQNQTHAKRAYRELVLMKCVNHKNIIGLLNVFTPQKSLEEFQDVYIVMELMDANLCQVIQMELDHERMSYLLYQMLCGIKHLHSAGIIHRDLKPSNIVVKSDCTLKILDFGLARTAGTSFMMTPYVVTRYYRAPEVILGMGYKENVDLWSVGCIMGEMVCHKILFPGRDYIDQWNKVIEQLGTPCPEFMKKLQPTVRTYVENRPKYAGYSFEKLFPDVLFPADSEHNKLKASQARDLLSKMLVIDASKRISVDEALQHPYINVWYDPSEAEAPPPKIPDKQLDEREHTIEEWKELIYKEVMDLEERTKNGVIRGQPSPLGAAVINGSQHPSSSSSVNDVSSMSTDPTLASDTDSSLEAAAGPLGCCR
From the text: as §1, §2

CDK5/p35 = CDK5/p35 (Homo sapiens, UniProt Q00535); test: as above; assay type: biochemical; also: ATP 10 µM
CDK5/p35, sequence (Q00535 whole entry, species assumed): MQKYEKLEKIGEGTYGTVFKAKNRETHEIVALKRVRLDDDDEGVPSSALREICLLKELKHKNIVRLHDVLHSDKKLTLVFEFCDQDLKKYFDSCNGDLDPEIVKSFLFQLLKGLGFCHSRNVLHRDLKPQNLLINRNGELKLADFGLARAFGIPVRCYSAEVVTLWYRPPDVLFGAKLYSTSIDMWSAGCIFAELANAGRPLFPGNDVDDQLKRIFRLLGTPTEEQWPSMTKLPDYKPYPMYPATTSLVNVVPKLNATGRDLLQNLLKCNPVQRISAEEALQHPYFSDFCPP
CDK5/p35, sequence (Q15078 whole entry partner, species assumed): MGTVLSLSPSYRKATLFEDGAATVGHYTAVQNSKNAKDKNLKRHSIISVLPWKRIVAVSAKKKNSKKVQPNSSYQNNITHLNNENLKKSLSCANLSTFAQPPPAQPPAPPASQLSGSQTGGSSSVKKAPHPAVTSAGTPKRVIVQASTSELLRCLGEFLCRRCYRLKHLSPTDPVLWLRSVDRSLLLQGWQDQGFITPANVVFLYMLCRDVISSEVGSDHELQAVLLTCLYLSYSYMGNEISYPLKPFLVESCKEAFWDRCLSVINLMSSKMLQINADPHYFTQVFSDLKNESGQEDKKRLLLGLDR
From the text: as §1, §2

CDK2/cyclinE = CDK2/cyclinE (Homo sapiens, UniProt P24941); test: as above; assay type: biochemical; also: ATP 10 µM
From the text: as §1, §2

GSK3β [1] = target: GSK3β (Homo sapiens, UniProt P49841); test: as above; assay type: biochemical
GSK3β (Homo sapiens, UniProt P49841), sequence (P49841 whole entry, species assumed): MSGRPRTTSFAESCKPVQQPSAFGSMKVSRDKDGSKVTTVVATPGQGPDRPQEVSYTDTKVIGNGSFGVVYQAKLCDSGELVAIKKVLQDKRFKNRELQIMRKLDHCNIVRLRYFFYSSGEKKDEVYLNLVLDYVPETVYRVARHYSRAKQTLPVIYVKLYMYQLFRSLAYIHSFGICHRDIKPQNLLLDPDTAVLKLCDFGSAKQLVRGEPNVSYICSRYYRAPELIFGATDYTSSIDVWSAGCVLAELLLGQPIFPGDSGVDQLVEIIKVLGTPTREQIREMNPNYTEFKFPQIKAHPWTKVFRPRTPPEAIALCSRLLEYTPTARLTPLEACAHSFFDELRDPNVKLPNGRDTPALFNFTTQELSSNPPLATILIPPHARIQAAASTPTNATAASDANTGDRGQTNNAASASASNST
From the text: as §1, §2

MKK6 = MKK6 (Homo sapiens, UniProt P52564); test: as above; assay type: biochemical; also: ATP 10 µM
MKK6, sequence (P52564 whole entry, species assumed): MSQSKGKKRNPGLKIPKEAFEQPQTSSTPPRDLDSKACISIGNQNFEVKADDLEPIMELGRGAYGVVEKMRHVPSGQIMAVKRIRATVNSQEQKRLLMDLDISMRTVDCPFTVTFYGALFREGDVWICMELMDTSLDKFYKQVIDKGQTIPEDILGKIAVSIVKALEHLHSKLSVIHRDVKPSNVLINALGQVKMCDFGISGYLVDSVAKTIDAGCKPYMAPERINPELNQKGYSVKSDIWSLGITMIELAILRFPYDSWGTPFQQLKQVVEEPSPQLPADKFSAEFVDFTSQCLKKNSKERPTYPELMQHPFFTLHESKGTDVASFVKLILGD
From the text: as §1, §2

GSK3β [2] = test: GSK3β phosphorylation in neuronal cultures, Western blot; assay type: cell-based, rat; conditions: LK + 1 uM GW5074
[3] = tested on: cerebellar granule neurons; test: Apoptosis of neurons infected with adenoviral dominant-negative Akt; assay type: cell-based, rat; conditions: LK + 1 uM GW5074 or 25 ng/ml IGF-1
From the text: Five day old neuronal cultures were infected with adenoviral vectors expressing either GFP or hemagluttinin (HA)-tagged dominant-negative Akt. […] Infected neurons were detected by positive staining for GFP or HA by immunocytochemistry. The proportion of apoptotic cells (condensed or fragmented nuclei) as a percentage of total infected neurons was quantified following DAPI-staining.
DnAkt and control recombinant adenovirus expressing green fluorescent protein (Ad-GFP) are propagated in HEK293T cells and purified by cesium chloride density gradient centrifugation. After quantification of titer, virus at an MOI of 10 are used to infect granule neuron cultures 5 days after plating by direct addition to the medium. Treatments are performed 24 hours after addition of virus.

c-fms = c-fms (Homo sapiens, UniProt P07333); conditions: Lackey et al., 2000; cited from earlier work
c-fms, sequence (P07333 20-972): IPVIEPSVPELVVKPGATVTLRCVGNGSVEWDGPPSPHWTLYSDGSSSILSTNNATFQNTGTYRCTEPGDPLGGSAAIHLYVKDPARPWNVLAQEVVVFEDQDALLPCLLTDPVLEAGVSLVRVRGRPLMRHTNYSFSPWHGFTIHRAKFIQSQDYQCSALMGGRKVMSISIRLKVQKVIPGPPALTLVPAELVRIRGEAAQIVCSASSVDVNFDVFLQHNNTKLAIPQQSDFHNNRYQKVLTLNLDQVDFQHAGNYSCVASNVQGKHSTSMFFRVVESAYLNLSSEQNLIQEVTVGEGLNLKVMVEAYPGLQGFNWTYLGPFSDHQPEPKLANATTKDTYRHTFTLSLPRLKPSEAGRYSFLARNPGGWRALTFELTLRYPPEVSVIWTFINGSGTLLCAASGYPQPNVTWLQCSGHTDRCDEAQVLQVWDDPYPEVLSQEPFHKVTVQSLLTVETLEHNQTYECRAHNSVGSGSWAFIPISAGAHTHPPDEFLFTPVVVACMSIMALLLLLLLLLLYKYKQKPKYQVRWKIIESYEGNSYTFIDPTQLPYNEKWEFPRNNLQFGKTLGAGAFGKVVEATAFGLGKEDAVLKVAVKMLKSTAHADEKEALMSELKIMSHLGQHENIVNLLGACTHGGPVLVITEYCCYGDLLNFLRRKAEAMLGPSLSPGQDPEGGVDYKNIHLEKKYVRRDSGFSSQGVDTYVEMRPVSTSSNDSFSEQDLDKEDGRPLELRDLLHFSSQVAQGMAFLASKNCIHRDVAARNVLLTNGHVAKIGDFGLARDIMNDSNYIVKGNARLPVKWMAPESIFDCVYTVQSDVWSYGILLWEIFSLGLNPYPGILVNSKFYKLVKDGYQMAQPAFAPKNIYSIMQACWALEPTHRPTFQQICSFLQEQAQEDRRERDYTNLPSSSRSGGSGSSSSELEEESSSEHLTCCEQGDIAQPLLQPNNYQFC

Forkhead = Forkhead dephosphorylation in LK; assay type: cell-based, rat; conditions: data not shown
Procedure: The best-studied anti-apoptotic pathway in neurons is the PI-3 kinase-Akt signaling pathway (D'Mello et al., 1997; Dudek et al., 1997; Miller et al, 1997a). IGF-1, a potent survival-promotic factor for granule neurons mediates its effect by activating the PI-3 kinase-Akt pathway (Datta et al., 1997; Dudek et al., 1997; D'Mello et al., 1998). […] Switching cerebellar granule neurons from serum-containing HK medium in which they are cultured and allowed to mature, to serum-free LK or HK medium, causes a rapid downregulation of Akt phosphorylation and activity, which can be prevented by IGF-1 (Kumari et al., 2001). […] The same blot was reprobed with an antibody against phospho-Gskβ. Also loaded on the gel were lysates from untreated cultures (maintained in medium containing serum and high K+) and a culture treated for 1 hour with 25 ng/ml IGF-1. […] GSK3βis a proapoptotic molecule that is activated during apoptosis in many neuronal and normeuronal systems. Under survival promoting conditions GSK3β is kept inactivated by phosphorylation, a modification that can be induced by Akt. […] Another proapoptotic molecule that is phosphorylated and inactivated by Akt is the transcription factor, Forkhead ([…] et al., 2002). […] Switching of neurons to LK medium leads to a rapid downregulation of Akt activity within 2 hours.

[4] = tested on: cerebellar granule neurons; test: Apoptosis of neurons transfected with dominant-negative B-Raf or LacZ in LK plus GW5074; assay type: cell-based, rat; conditions: LK + 1 uM GW5074, 24 hours
Procedure: A dominant-negative […] expression vector, pSRa GST B-Raf S728A (full length human B-Raf with Serine to Alanine mutation at position 728) was gifted to us by Dr. Angus M. MacNicol, University of Arkansas for Medical Sciences, Little Rock, Ark. Neuronal cultures were transfected with CMV-LacZ or the dominant-negative B-Raf construct using the calcium phosphate method 5 days after plating of the cultures. […] The proportion of transfected neurons that were apoptotic was quantified 24 hours later.

mice = test: 3-Nitropropionic acid (3-NP) model of Huntington's disease, striatal lesions; assay type: in vivo; conditions: GW5074 5 mg/kg body weight intraperitoneally
From the text: 3-Nitropropionic acid (3-NP) administration in rodents and nonhuman primates has served as a useful experimental model for HD (reviewed in Brouillet et al., 1999). 3-NP is an irreversible inhibitor of succinate dehydrogenase (SDH; Complex II), which causes prolonged mitochondrial energy impairment and replicates most of the clinical and pathophysiological hallmarks of HD including selective striatal degeneration, spontaneous choreiform and dystonic movements (Brouillet et al., 1999).
Mice were purchased from Charles River (Wilmington, Mass.). 3-NP was dissolved in water and the solution brought to pH 7.4 with sodium hydroxide. 3NP was administered to 8-week old B6CBA male mice in ten intraperitoneal injections (50 mg/kg twice a day for 5 days). […] Control animals received saline injections. On the day following the 5 days of injection, mice were deeply anesthetized, intracardially perfused, brains removed, post fixed in 4% paraformaldehyde and cryoprotected. Coronal sections were cut on a cryostat at 50 micron and stained for Nissl substance (cresyl violet).

MEK1, sequence (Q02750 whole entry, species assumed): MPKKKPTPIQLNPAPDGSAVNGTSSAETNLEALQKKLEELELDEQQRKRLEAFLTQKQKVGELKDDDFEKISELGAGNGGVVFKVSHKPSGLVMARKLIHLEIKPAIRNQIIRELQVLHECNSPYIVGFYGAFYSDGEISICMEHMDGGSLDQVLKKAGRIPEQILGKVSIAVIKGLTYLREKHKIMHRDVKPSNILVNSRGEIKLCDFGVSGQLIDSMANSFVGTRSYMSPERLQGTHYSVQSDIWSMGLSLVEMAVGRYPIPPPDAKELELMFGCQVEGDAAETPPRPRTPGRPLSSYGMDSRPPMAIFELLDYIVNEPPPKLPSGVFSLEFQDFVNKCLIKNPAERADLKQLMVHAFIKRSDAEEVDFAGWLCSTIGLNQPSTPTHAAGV

SMILES: O=C1Nc2ccc(I)cc2C1=Cc1cc(Br)c(O)c(Br)c1 [GW5074, 5-Iodo-3-[(3,5-dibromo-4-hydroxyphenyl)methylene]-2-indolinone]
- activity at 1 µM (MEK1): 94 ± 4%
- activity at 1 µM (JNK2): 91 ± 4%
- activity at 1 µM (JNK1): 94 ± 3%
- activity at 1 µM (CDK5/p35): 94 ± 2%
- activity at 1 µM (CDK2/cyclinE): 100 ± 5%
- activity at 1 µM (GSK3β [1]): 81 ± 6%
- activity at 1 µM (MKK6): 91 ± 4%
- activation of GSK3β after switch to LK (GSK3β [2]): prevents the activation of GSK3
- effect of dominant-negative Akt on survival promotion [3]: no effect on the ability of GW5074 to maintain neuronal survival
- effect on activity of c-fms (c-fms): no effect
- dephosphorylation of Forkhead in LK (Forkhead): reduces the dephosphorylation
- death of neurons ([4]; LacZ control): less than 10%
- death of infected neurons ([4]; dominant-negative B-Raf, data not shown): 80%
- 3-NP-induced striatal degeneration (mice): completely prevented
